In one test the test system is δ-opioid receptors. The following applies: ref [11]; cited from earlier work. The source says:
These are potent μ-opioid agonists that exert addiction liability and numerous side effects, such as euphoria, addiction, respiratory depression, and gastrointestinal adverse reactions; therefore; circumventing these drawbacks is of extensive importance. A large amount of literature documented novel approaches to disconnecting the analgesic efficacy of μ-opioid agonists from morphine-like side effects, for example biasing the GPCRs over β-arrestin2 recruitment (TRV130, PZM21, HS665) or designing positive allosteric modulators of the MOR (BMS-986122), MOR inverse agonists/KOR antagonists, ...

Test [1] has as its system MOR, rat brain membrane homogenates. Briefly: MOR specificity of the peptide 1 effect: [^35S]GTPγS binding with co-incubated DAMGO or cyprodime. The test is classed as biochemical, rat (male Wistar). The note with it: rat brain membranes. The procedure: Rats were decapitated and their brains were quickly removed. The brains were used for membrane preparation according to Benyhe et al. partly used for competition binding experiments and partly were further prepared for the [^35S]GTPγS binding experiments based on Zádor et al.. Briefly, the brains were homogenized, centrifuged in ice-cold 50 mM Tris-HCl (pH 7.4) buffer and incubated at 37 °C for 30 min in a shaking water-bath. After incubation, the centrifugation was repeated as described before and the final pellet was suspended in 50 mM Tris-HCl pH 7.4 buffer containing 0.32 M sucrose and stored at −80 °C. […]
In [^35S]GTPγS binding experiments was measured the GDP→GTP exchange of the Gαi/o protein in the presence of a given ligand to measure ligand potency and the maximal efficacy of receptors G-protein. The nucleotide exchange is monitored by a radioactive, non-hydrolysable GTP analog, [^35S]GTPγS. […] Total binding was measured in the absence of test compounds, while non-specific binding was determined in the presence of 10 μM unlabeled GTPγS. […] The radioactivity of the filters was also detected as described above. […]
(§1) The specific binding of all radiolabeled compounds was calculated by the subtraction of non-specific binding from total binding and was given in percentage. […]
Background: GTPγS resists hydrolysis and so accumulates on activated G proteins.

Test [2] has as its system MOR (µ-opioid receptor), rat brain membranes. As to the kind of experiment: Radioligand competition binding, [^3H]DAMGO. Also noted: species or system rat (male Wistar). The note with it: for activity against MOR (in words): stated when comparing binding modes, up to 10 µM. The procedure:
(§2) Rats were decapitated and their brains were quickly removed. The brains were used for membrane preparation according to Benyhe et al. partly used for competition binding experiments and partly were further prepared for the [^35S]GTPγS binding experiments based on Zádor et al.. Briefly, the brains were homogenized, centrifuged in ice-cold 50 mM Tris-HCl (pH 7.4) buffer and incubated at 37 °C for 30 min in a shaking water-bath. After incubation, the centrifugation was repeated as described before and the final pellet was suspended in 50 mM Tris-HCl pH 7.4 buffer containing 0.32 M sucrose and stored at −80 °C. For the [^35S]GTPγS binding experiments the final pellet of rat brain membrane homogenate was suspended in ice-cold TEM (Tris-HCl, EGTA, MgCl2) and stored at −80 °C for further use.
Total and non-specific binding was determined in the absence of ligands and the presence of 10 µM unlabeled naloxone, respectively. Following incubation, the bound and unbound radioligands were separated by rapid vacuum filtration through Whatman GF/C glass fibers and washed three times with 5 mL ice-cold 50 mM Tris-HCl (pH: 7.4). The radioactivity of the filters was detected in UltimaGold^TM MV aqueous scintillation cocktail with Packard Tricarb 2300TR liquid scintillation counter. The competition binding assays were performed in duplicate and repeated at least three times.
(§3) The specific binding of all radiolabeled compounds was calculated by the subtraction of non-specific binding from total binding and was given in percentage. The data were normalized to total specific binding, which was settled 100%, which in the case of [^35S]GTPγS also represents the basal activity of the G-protein. Experimental data were presented as mean ± S.E.M. Statistical analyses were performed with GraphPad Prism 5.0 applying one-way ANOVA with Tukey’s multiple comparison test. Significance was accepted at the p < 0.05 level.
For orientation: Displacement assays read how much labelled ligand stays bound in the presence of the test substance.

Test [3] has as its system DOR (δ-opioid receptor), rat brain membranes. Briefly: Radioligand competition binding, [^3H]IleDelt II. More on the design: species or system rat (male Wistar). The following applies: 3 and 10 µM. The procedure: as §2
Total and non-specific binding was determined in the absence of ligands and the presence of 10 µM unlabeled naloxone, respectively. […] The radioactivity of the filters was detected in UltimaGold^TM MV aqueous scintillation cocktail with Packard Tricarb 2300TR liquid scintillation counter. […]
as §1

For test [4], the system named is Gαi/o protein, rat brain membrane homogenates. Briefly: Functional [^35S]GTPγS binding (G-protein activity). Type of test: biochemical, rat (male Wistar). The following applies: 10 µM, basal activity = 100%, 30 °C, 60 min, triplicates, at least three times; for effect on G-protein basal activity / [^35S]GTPγS specific binding (in words): rat brain membranes, pH 7.4. The procedure:
as §2
In [^35S]GTPγS binding experiments was measured the GDP→GTP exchange of the Gαi/o protein in the presence of a given ligand to measure ligand potency and the maximal efficacy of receptors G-protein. The nucleotide exchange is monitored by a radioactive, non-hydrolysable GTP analog, [^35S]GTPγS. The functional [^35S]GTPγS binding experiments were performed as previously described, with some modifications. The test compounds in 10 µM were incubated together with rat brain membrane homogenates containing ~10 μg/mL protein at 30 °C for 60 min in Tris-EGTA buffer (pH 7.4) composed of 50 mM Tris-HCl, 1 mM EGTA, 3 mM MgCl2, 100 mM NaCl, containing 20 MBq/0.05 cm^3 [^35S]GTPγS (0.05 nM). […] Total binding was measured in the absence of test compounds, while non-specific binding was determined in the presence of 10 μM unlabeled GTPγS. The bound and unbound [^35S]GTPγS were separated as described in the competition binding assays section through Whatmann GF/B glass fibers. The radioactivity of the filters was also detected as described above. [^35S]GTPγS binding experiments were performed in triplicates and repeated at least three times.
as §3

In test [5] the target is δ-opioid receptor (rat (endogenous in Wistar rat brain)) (UniProt P33533). As to the kind of experiment: radioligand binding; competition against ~1 nM [^3H]IleDelt II on rat brain membranes (0.3-0.5 mg/mL protein), test ligands at 3 and 10 µM, 35 °C, 45 min; non-specific binding with 10 µM naloxone; filtration, 50 mM Tris-HCl pH 7.4 wash.
For test [6], the target named is µ-opioid receptor (rat (endogenous in Wistar rat brain)) (UniProt P33535).

These results are taken from paper PMC6865014, “Discovery of Novel µ-Opioid Receptor Inverse Agonist from a Combinatorial Library of Tetrapeptides through Structure-Based Virtual Screening” (Molecules, 2019).

For the molecule rubiscolin-6, in the test with δ-opioid receptors, the “G protein signaling at δ-opioid receptors (in words)” value was “activate G protein signaling pathways at the δ-opioid receptors” and the “β-arrestin recruitment (in words)” value was “minimal β-arrestin recruitment”.

As to “H-Tyr-Lys-Arg-Cys-OH [peptide 1, TFA.H-Tyr-Lys-Arg-Cys-OH]”, in test [1] (10 µM), the “MOR functional activity (in words)” value is given as “appreciable inverse agonist effect at MOR”. Moreover, in test [1] (peptide 1 10 µM + DAMGO 10 µM), the “inverse agonist effect in presence of DAMGO” value is listed as “the inverse agonist effect was reversed back to basal activity level”. The “inhibition of [^3H]DAMGO specific binding (in words)” value in test [2] (3 and 10 µM, rat brain membranes) is “displayed inhibition of [^3H]DAMGO specific binding”. In addition, the “selectivity MOR over DOR (in words)” value in test [2] ([^3H]DAMGO vs [^3H]IleDelt II binding, rat brain membranes) is “selectivity for MOR over DOR”. Moreover, the “inhibition of [^3H]IleDelt II specific binding (in words)” value in test [3] was “not against [^3H]IleDelt II”. The “reduction of G-protein basal activity ([^35S]GTPγS specific binding)” value in test [4] (rat brain membranes ~10 μg/mL, pH 7.4, 0.05 nM [^35S]GTPγS) is ~ 20%. Also, the “effect on G-protein basal activity / [^35S]GTPγS specific binding (in words)” value in test [4] is “appreciable inverse agonist effect”.

“H-Tyr-Trp-Trp-Trp-OH [peptide 2, TFA.H-Tyr-Trp-Trp-Trp-OH]”: the “activity against MOR (in words)” value in test [2] is “inactive against MOR”. Moreover, the “effect on G-protein basal activity / [^35S]GTPγS specific binding (in words)” value in test [4] is given as “did not alter significantly the basal activity”.

As to “Tyr-D-Ala-Gly-(NMe)Phe-Gly-ol [DAMGO, reference compound]”, the “specific binding of [^3H]DAMGO in presence of unlabeled homologue” value in test [2] (control, unlabeled DAMGO 3 and 10 µM, rat brain membranes, 35 °C, 45 min, 0% = non-specific binding level) is recorded as 0%. Besides, in test [4], the “effect on G-protein basal activity / [^35S]GTPγS specific binding (in words)” value is “significantly increased the specific binding of the [^35S]GTPγS compared to the basal level”.

Consider Ile^5,6-deltorphin II (peptide), for which, in test [5], the specific binding of the radiolabeled homolog left (percent of total) stood at 0%.

Consider “H-Tyr-Trp-Tyr-Trp-OH [peptide 3, TFA.H-Tyr-Trp-Tyr-Trp-OH]”, for which the “activity against MOR (in words)” value in test [2] is “inactive against MOR”. Besides, in test [4], the “effect on G-protein basal activity / [^35S]GTPγS specific binding (in words)” value is “did not alter significantly the basal activity”.

In test [6], YKRC [peptide 1 (Tyr-Lys-Arg-Cys)] displayed a [^35S]GTPγS specific binding (G-protein basal activity) in rat brain membranes, 10 µM peptide 1 of 20%.
